In publication PMC10893103, “Cyclodextrin-Enabled Enantioselective Complexation Study of Cathinone Analogs” (Molecules, 2024):

Experiment: Affinity capillary electrophoresis (ACE), pH 7.4
Conditions: 30 mM phosphate buffer pH 7.4, 25 °C, 15 kV
From the text: To assess the CD complex formation capability of the five cathinone derivatives, we devised a screening ACE method tailored to closely mimic physiological conditions. In a preliminary study, the ACE conditions were optimized regarding the type, pH, and concentration of the background electrolyte, the applied voltage, and the injection parameters. […] In order to avoid high Joule heat generation, sufficiently low voltage should be used; thus, after registering the Ohm plot (I-U plot), it was set to 15 kV. Throughout our ACE measurements, corrections for viscosity and ionic strength were systematically implemented to ensure precise determination of complex stability constants.
The CE experiments were performed on a HP ^3DCE and on an Agilent 7100 instrument (Agilent Technologies, Waldbronn, Germany) equipped with a photodiode array detector and the Chemstation software for data handling. Untreated fused silica capillaries (50 µm id, 48.5 cm total, 40 cm effective length) were purchased from Agilent. Conditioning of new capillary was conducted by flushing with 1 M NaOH followed by 0.1 M NaOH and water for 30 min each. Prior to all runs, the capillary was preconditioned by rinsing with BGE (2 min). The temperature of the capillary was set to 25 °C. UV detection was performed at 215 nm, and 15–25 kV voltage was applied. Samples were injected hydrodynamically (150 mbar·sec, optimized in the 50–500 mbar·sec range). The CE-pH measurements were carried out applying 25 kV voltage and 200 mbar·sec injection.
The background electrolyte of the CE-pH measurements contained 25 mM Na2HPO4 and 25 mM Na2B4O7, and the appropriate pH was adjusted with hydrochloric acid. During the ACE measurements, 30 mM phosphate buffer pH 7.4 (30 mM Na2HPO4—NaOH) was used. The running buffer was 20 mM acetic acid adjusting with 1 M Tris the pH to 4.5 during the chiral screening experiments. The BGEs contained CDs at various concentrations (0.25–20 mM) in the ACE experiments and 1-5-10 mM in the chiral method optimization experiments.
Stock solutions of each cathinone analog (mephedrone, flephedrone, 4-MEC, butylone, and MDPV) were prepared separately in methanol (1 mg/ml), and appropriate dilutions with water were used to prepare sample solutions for the CE-pH titration and for the ACE studies applying DMSO as EOF marker, while their mixture was used during the chiral separation studies.
The simplest way to determine the mobility is from the migration times (tmax) read from the electropherograms from which the apparent mobility could be calculated, but more accurate mobility values could be obtained by the determination with the Haarhoff–van der Linde (HVL) function based on Equation (2). (2) HVLδ(t;a0,a1,a2,a3δ)=a0/a2a3δ2πexp[−1/2(t−a1/a2)^2]/1/exp(a3δ)−1+1/2[1+erf(t−a1/2a2)] where a0 is the area of the HVL function, a1 is the position of the Gaussian component, a2 is the standard deviation of the Gaussian component, and a3δ is the peak shape distortion. The application of the HVL function is necessary in the case of accurate ACE measurements because, in several cases, the peaks are distorted due to the complex formation, which makes reading the migration times and calculating the mobility more difficult and imprecise.
The most popular technique for quantifying the analyte–ligand interaction with CE is mobility shift ACE.

Compound | Butylone–CD complex stability constant, Kstab2 (second migrating enantiomer) | Butylone–CD complex stability constant, Kstab/Kstab1 (unresolved or first migrating enantiomer) | MDPV–CD complex stability constant, Kstab2 (second migrating enantiomer) | MDPV–CD complex stability constant, Kstab/Kstab1 (unresolved or first migrating enantiomer) | 4-MEC–CD complex stability constant, Kstab2 (second migrating enantiomer) [M⁻¹] | 4-MEC–CD complex stability constant, Kstab/Kstab1 (unresolved or first migrating enantiomer) [M⁻¹] | Flephedrone–CD complex stability constant, Kstab/Kstab1 (unresolved or first migrating enantiomer) [M⁻¹] | Mephedrone–CD complex stability constant, Kstab2 (second migrating enantiomer) [M⁻¹] | Mephedrone–CD complex stability constant, Kstab/Kstab1 (unresolved or first migrating enantiomer) [M⁻¹] | Flephedrone–CD complex stability constant, Kstab2 (second migrating enantiomer) [M⁻¹]
succinyl-β-CD [Succ-β-CD (DS~4)] | 30,500 ± 5300 M^−1 | 13,500 ± 1350 M^−1 | 10,600 ± 35 M^−1 | 12,100 ± 2150 M^−1 | – | – | – | – | – | –
sulfo(2-hydroxy)propylated-β-CD [SHP-β-CD] | – | 620 ± 35 M⁻¹ | 910 ± 55 M⁻¹ | 800 ± 65 M⁻¹ | 300 ± 25 | 250 ± 20 | 60 ± 10 | 300 ± 20 | 230 ± 20 | –
hydroxypropylated-β-CD [HP-β-CD] | – | 170 ± 10 M⁻¹ | – | 255 ± 10 M⁻¹ | – | 80 ± 5 | 15 ± 3 | – | 60 ± 4 | –
carboxyethylated-β-CD [CE-β-CD] | – | 975 ± 95 M⁻¹ | – | – | – | 590 ± 40 | 150 ± 10 | 430 ± 25 | 400 ± 30 | –
O=C(O)CCSC[C@H]1O[C@@H]2O[C@H]3[C@H](O)[C@@H](O)[C@@H](O[C@H]4[C@H](O)[C@@H](O)[C@@H](O[C@H]5[C@H](O)[C@@H](O)[C@@H](O[C@H]6[C@H](O)[C@@H](O)[C@@H](O[C@H]7[C@H](O)[C@@H](O)[C@@H](O[C@H]8[C@H](O)[C@@H](O)[C@@H](O[C@H]1[C@H](O)[C@H]2O)O[C@@H]8CSCCC(=O)O)O[C@@H]7CSCCC(=O)O)O[C@@H]6CSCCC(=O)O)O[C@@H]5CSCCC(=O)O)O[C@@H]4CSCCC(=O)O)O[C@@H]3CSCCC(=O)O [SBX, heptakis-(6-deoxy-6-(2-carboxyethyl)thio)-β-CD] | – | – | 12,830 ± 900 M^−1 | – | – | – | 575 ± 35 | – | – | 610 ± 45
acetylated-β-CD [Ac-β-CD] | 380 ± 30 M⁻¹ | 290 ± 30 M⁻¹ | 240 ± 20 M⁻¹ | 310 ± 30 M⁻¹ | – | 150 ± 15 | 100 ± 14 | – | 220 ± 20 | –
phosphated-β-CD [Phos-β-CD] | – | – | – | 870 ± 60 M⁻¹ | – | – | 330 ± 20 | – | – | 440 ± 35
COCC1OC2OC3C(COC)OC(OC4C(COC)OC(OC5C(COC)OC(OC6C(COC)OC(OC7C(COC)OC(OC8C(COC)OC(OC1C(OC)C2OC)C(OC)C8OC)C(OC)C7OC)C(OC)C6OC)C(OC)C5OC)C(OC)C4OC)C(OC)C3OC (stereo not drawn) [TRIME-β-CD, permethylated-β-CD] | – | 20 ± 2 M⁻¹ | – | 40 ± 10 M⁻¹ | – | 60 ± 15 | < 10 | – | 20 ± 3 | –
sulfobutyl-ether-α-CD [SBE-α-CD] | 530 ± 100 M⁻¹ | 220 ± 20 M⁻¹ | 550 ± 90 M⁻¹ | 580 ± 80 M⁻¹ | 610 ± 55 | 450 ± 45 | – | 565 ± 80 | 430 ± 70 | –
OC[C@H]1O[C@@H]2O[C@H]3[C@H](O)[C@@H](O)[C@@H](O[C@H]4[C@H](O)[C@@H](O)[C@@H](O[C@H]5[C@H](O)[C@@H](O)[C@@H](O[C@H]6[C@H](O)[C@@H](O)[C@@H](O[C@H]7[C@H](O)[C@@H](O)[C@@H](O[C@H]8[C@H](O)[C@@H](O)[C@@H](O[C@H]1[C@H](O)[C@H]2O)O[C@@H]8CO)O[C@@H]7CO)O[C@@H]6CO)O[C@@H]5CN1CCCC1)O[C@@H]4CO)O[C@@H]3CO [PYR-β-CD, 6-monodeoxy-6-pyrrolidine-β-CD] | – | – | 430 ± 50 M⁻¹ | 105 ± 15 M⁻¹ | – | 215 ± 30 | 640 ± 145 | – | 115 ± 20 | –
O=C(O)CCSC[C@H]1O[C@@H]2O[C@H]3[C@H](O)[C@@H](O)[C@@H](O[C@H]4[C@H](O)[C@@H](O)[C@@H](O[C@H]5[C@H](O)[C@@H](O)[C@@H](O[C@H]6[C@H](O)[C@@H](O)[C@@H](O[C@H]7[C@H](O)[C@@H](O)[C@@H](O[C@H]1[C@H](O)[C@H]2O)O[C@@H]7CSCCC(=O)O)O[C@@H]6CSCCC(=O)O)O[C@@H]5CSCCC(=O)O)O[C@@H]4CSCCC(=O)O)O[C@@H]3CSCCC(=O)O [SAX, hexakis-(6-deoxy-6-(2-carboxyethyl)thio)-α-CD] | – | – | – | – | – | – | – | – | 530 ± 45 | –
CO[C@H]1[C@H]2O[C@H]3[C@H](OS(=O)(=O)O)[C@@H](OC)[C@@H](O[C@H]4[C@H](OS(=O)(=O)O)[C@@H](OC)[C@@H](O[C@H]5[C@H](OS(=O)(=O)O)[C@@H](OC)[C@@H](O[C@H]6[C@H](OS(=O)(=O)O)[C@@H](OC)[C@@H](O[C@H]7[C@H](OS(=O)(=O)O)[C@@H](OC)[C@@H](O[C@H]8[C@H](OS(=O)(=O)O)[C@@H](OC)[C@@H](O[C@@H]([C@@H]1OS(=O)(=O)O)[C@@H](COS(=O)(=O)O)O2)O[C@@H]8COS(=O)(=O)O)O[C@@H]7COS(=O)(=O)O)O[C@@H]6COS(=O)(=O)O)O[C@@H]5COS(=O)(=O)O)O[C@@H]4COS(=O)(=O)O)O[C@@H]3COS(=O)(=O)O [HMDiSu-β-CD, heptakis-(2-O-methyl, 3,6-O-disulfo)-β-CD] | – | 265 ± 20 M⁻¹ | – | 165 ± 25 M⁻¹ | – | 260 ± 10 | – | – | – | –
OCCCNC[C@H]1O[C@@H]2O[C@H]3[C@H](O)[C@@H](O)[C@@H](O[C@H]4[C@H](O)[C@@H](O)[C@@H](O[C@H]5[C@H](O)[C@@H](O)[C@@H](O[C@H]6[C@H](O)[C@@H](O)[C@@H](O[C@H]7[C@H](O)[C@@H](O)[C@@H](O[C@H]8[C@H](O)[C@@H](O)[C@@H](O[C@H]1[C@H](O)[C@H]2O)O[C@@H]8CO)O[C@@H]7CO)O[C@@H]6CO)O[C@@H]5CO)O[C@@H]4CO)O[C@@H]3CO [HPA-β-CD, mono-6^A-(3-hydroxy)propylamino-β-CD] | – | 85 ± 15 M⁻¹ | 570 ± 80 M⁻¹ | 840 ± 65 M⁻¹ | – | 145 ± 15 | 500 ± 105 | – | 140 ± 35 | –
